These are literature values, as cited in patent US20250331550A1, “AEROSOL-GENERATING ARTICLE EMBEDDED AVERSIVE AGENT” (PHILIP MORRIS PRODUCTS S.A., priority 2022, published 2025).

Structures can show the parent of a compound that is named as a salt.

The test system of this series is test panel. Conditions: reciprocal of the dilution that still has a bitter taste; quinine hydrochloride set at 200,000.
Regarding amarogentin, the Bitterness value is listed as 58,000,000.

In the case of `C[C@@]12C[C@@H](c3ccoc3)OC(=O)[C@@H]1CC[C@]1(C)[C@H]2[C@@H]2C=C[C@@]1(O)C(=O)O2` [Columbin, columbin], the Bitterness value is recorded as 60,000,000.

`COC1=C[C@@H](C)[C@@H]2C[C@H]3OC(=O)C[C@H]4C(C)=C(OC)C(=O)[C@H]([C@@]2(C)C1=O)[C@@]34C` [Quassin, quassin]: the Bitterness value is 13,000,000.

Regarding `C=C[C@H]1C[N@@]2CC[C@H]1C[C@H]2[C@H](O)c1ccnc2ccc(OC)cc12` [Quinine hydrochloride, quinine hydrochloride], the Bitterness value is reported as 200,000.

For `CC1=C[C@H]2[C@H]3[C@H](C(C)=C4[C@H]5OC(=O)[C@@H](C)[C@@H]5CC[C@](C)(O)[C@@H]43)[C@@]13[C@@H]2[C@@](C)(O)CC[C@H]1[C@H](C)C(=O)O[C@@H]13` [Absinthin, absinthin], the Bitterness value is 3,000,000.
